Measurements reported in paper PMC7669905, “A cellulose synthase-derived enzyme catalyses 3-O-glucuronosylation in saponin biosynthesis” (Nature Communications, 2020).

What was measured:
Format in all cases: cell-based
GuCSyGT [1] = molecular target: T1, GuCSyGT (Glycyrrhiza uralensis, UniProt A0A7I6P8N6); test: in vivo yeast assay, LC-MS of products with and without UGD; conditions: sugar donor; acceptor glycyrrhetinic acid
T1 construct: full-length cDNA, ER membrane protein, expressed in S. cerevisiae with A. thaliana UGD
T1 sequence (A0A7I6P8N6 1-695): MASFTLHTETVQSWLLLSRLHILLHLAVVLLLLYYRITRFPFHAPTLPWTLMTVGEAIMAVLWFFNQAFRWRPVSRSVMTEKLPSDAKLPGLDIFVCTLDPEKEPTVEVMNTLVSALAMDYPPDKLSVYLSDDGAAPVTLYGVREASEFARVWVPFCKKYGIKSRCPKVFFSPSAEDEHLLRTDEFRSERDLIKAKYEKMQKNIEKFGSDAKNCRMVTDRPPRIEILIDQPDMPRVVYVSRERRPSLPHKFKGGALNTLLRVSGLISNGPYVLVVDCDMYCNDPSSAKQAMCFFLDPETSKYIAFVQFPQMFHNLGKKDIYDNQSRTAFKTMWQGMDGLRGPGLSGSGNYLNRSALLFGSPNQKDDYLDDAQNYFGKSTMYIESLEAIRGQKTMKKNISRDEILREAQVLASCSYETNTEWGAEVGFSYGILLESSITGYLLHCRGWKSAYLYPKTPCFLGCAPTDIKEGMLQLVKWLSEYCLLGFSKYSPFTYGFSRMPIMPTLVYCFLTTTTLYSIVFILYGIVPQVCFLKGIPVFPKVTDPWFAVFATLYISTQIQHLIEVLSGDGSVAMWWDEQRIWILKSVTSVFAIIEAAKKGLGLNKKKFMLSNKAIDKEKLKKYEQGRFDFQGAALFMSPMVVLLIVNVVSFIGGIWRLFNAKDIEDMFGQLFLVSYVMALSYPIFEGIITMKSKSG

GmCSyGT3 = molecular target: T2, GmCSyGT3 (Glycine max, UniProt A0A7I6P8J7); test: yeast feeding assay, LC-MS of monoglucuronide; conditions: 10 µM substrate fed to yeast with co-expressed UGD
T2 construct: full-length cDNA, membrane protein, expressed in S. cerevisiae with A. thaliana UGD
T2 sequence (A0A7I6P8J7 1-696): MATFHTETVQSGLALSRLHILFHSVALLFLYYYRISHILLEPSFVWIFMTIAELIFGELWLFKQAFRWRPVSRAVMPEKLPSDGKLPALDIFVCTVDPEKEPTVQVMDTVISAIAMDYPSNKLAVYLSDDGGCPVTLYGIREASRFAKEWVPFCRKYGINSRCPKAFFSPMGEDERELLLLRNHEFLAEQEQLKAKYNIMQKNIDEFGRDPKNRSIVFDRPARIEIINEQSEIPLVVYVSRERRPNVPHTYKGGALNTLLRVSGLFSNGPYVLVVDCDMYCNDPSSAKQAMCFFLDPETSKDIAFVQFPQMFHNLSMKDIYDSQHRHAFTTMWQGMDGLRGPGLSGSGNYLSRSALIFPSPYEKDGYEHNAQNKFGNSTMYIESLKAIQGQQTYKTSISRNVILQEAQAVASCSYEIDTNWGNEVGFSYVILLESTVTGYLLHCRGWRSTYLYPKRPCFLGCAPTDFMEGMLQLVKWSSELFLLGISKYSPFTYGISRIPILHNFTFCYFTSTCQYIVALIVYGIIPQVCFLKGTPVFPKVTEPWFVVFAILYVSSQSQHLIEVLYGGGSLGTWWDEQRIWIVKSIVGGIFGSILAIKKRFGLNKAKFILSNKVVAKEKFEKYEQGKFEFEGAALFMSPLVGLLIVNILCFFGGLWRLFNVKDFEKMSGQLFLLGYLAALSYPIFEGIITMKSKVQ

LjCSyGT = molecular target: T3, LjCSyGT (Lotus japonicus, UniProt A0A7I6P8A1); test: in vivo yeast assay, LC-MS of monoglucuronide; conditions: yeast strain with co-expressed UGD; endogenous UDP-glucuronic acid; 30 °C, 5 days
T3 construct: cDNA clone, ER membrane protein, expressed in S. cerevisiae with A. thaliana UGD
T3 sequence (A0A7I6P8A1 1-694): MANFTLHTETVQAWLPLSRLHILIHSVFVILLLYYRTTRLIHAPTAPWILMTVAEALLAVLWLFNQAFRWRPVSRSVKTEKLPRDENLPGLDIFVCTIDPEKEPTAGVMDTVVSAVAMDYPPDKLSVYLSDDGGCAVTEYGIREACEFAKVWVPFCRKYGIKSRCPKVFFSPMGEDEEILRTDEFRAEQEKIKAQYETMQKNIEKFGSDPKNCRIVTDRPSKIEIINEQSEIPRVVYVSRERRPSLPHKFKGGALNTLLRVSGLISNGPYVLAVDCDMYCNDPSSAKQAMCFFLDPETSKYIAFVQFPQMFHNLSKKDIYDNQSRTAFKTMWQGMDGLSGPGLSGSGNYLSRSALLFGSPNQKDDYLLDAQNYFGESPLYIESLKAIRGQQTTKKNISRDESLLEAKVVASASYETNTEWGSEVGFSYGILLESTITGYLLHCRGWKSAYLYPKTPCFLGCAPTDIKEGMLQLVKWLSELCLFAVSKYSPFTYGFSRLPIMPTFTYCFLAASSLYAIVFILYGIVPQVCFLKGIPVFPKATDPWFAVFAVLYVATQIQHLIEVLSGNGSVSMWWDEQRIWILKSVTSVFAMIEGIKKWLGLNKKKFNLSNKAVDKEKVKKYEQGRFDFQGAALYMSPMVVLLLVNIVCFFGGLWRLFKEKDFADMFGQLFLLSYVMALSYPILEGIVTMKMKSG

GmCSyGT1 = molecular target: T4, GmCSyGT1 (Glycine max, UniProt A0A7I6PD81); test: in vivo yeast assay, LC-MS of monoglucuronide; conditions: yeast strain with co-expressed UGD; endogenous UDP-glucuronic acid; 30 °C, 5 days
T4 construct: full-length cDNA, membrane protein, expressed in S. cerevisiae with A. thaliana UGD
T4 sequence (A0A7I6PD81 1-699): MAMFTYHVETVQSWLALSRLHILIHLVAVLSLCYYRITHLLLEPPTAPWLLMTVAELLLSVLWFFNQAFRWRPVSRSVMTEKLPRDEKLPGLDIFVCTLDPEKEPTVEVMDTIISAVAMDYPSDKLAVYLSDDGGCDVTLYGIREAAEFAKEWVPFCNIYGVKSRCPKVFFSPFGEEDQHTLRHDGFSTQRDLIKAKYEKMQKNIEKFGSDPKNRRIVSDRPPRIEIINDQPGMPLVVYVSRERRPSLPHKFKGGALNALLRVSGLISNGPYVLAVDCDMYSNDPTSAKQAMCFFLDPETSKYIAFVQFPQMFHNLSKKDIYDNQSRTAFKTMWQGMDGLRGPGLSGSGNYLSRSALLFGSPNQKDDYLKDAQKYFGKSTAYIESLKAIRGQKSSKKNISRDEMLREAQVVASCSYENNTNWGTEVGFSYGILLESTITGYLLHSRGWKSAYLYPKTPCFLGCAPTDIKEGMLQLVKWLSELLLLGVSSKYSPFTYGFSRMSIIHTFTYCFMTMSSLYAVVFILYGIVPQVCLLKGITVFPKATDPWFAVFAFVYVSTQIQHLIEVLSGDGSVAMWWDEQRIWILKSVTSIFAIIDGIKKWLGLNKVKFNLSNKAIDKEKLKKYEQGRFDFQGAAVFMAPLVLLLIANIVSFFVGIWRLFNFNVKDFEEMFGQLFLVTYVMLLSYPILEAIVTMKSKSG

UGT73P12 = molecular target: T5, UGT73P12 (Glycyrrhiza uralensis, UniProt A0A5A4WN00); test: de novo pathway in yeast, LC-MS of glycyrrhizin; conditions: donor endogenous UDP-glucuronic acid (UGD); acceptor made in situ by CSyGT
T5 construct: expressed in S. cerevisiae in the reconstructed glycyrrhizin pathway (strain GL)
T5 sequence (A0A5A4WN00 1-506): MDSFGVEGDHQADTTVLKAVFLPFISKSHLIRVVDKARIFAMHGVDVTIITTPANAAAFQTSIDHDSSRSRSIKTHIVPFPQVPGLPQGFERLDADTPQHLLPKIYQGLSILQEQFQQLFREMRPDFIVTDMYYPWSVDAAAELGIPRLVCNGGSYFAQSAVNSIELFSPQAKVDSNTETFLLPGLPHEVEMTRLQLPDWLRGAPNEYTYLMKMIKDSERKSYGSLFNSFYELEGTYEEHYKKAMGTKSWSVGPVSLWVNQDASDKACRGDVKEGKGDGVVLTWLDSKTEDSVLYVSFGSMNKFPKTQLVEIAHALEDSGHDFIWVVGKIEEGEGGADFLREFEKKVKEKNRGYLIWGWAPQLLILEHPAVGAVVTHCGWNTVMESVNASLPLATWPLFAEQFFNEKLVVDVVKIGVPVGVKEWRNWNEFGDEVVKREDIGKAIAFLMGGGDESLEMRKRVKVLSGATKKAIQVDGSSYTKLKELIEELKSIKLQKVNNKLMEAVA

GuUGT73F13 = molecular target: T6, GuUGT73F13 (Glycyrrhiza uralensis, UniProt A0A6S4QPQ3); test: in vivo yeast assay, LC-MS of 3-O-monoglucoside; conditions: glycyrrhetinic acid-producing yeast strain with UGD; donor endogenous UDP-glucose
T6 construct: gene UGT73F13; cDNA clone expressed in S. cerevisiae with A. thaliana UGD
T6 sequence (A0A6S4QPQ3 1-477): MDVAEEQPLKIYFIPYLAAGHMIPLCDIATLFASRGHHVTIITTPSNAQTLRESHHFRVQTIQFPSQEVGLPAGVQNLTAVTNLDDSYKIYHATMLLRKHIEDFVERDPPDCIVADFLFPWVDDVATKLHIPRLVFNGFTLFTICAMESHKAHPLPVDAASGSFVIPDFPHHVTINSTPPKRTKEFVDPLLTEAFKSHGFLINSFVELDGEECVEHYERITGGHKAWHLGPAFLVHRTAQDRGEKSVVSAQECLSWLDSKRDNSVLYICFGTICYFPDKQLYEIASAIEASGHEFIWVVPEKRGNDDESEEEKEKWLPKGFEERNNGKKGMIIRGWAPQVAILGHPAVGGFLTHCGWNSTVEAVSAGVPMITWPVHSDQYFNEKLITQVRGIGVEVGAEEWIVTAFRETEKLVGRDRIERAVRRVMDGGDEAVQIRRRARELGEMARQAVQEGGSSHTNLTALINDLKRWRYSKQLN

GuCSyGT [2] = molecular target: T1, GuCSyGT; test: in vivo yeast assay, LC-MS of monoglucuronide; conditions: yeast strain with co-expressed UGD; endogenous UDP-glucuronic acid; 30 °C, 5 days

| Structure (SMILES) | yeast feeding assay, LC-MS of monoglucuronide (GmCSyGT3) | in vivo yeast assay, LC-MS of monoglucuronide (LjCSyGT) | in vivo yeast assay, LC-MS of monoglucuronide (GmCSyGT1) | also measured |
| --- | --- | --- | --- | --- |
| O=C(O)[C@H]1O[C@H](OP(=O)(O)OP(=O)(O)OC[C@H]2O[C@@H](n3ccc(=O)[nH]c3=O)[C@H](O)[C@@H]2O)[C@H](O)[C@@H](O)[C@@H]1O [UDP-glucuronic acid] |  |  |  | in vivo yeast assay, LC-MS of products with and without UGD (GuCSyGT [1]): GuCSyGT preferentially selects UDP-glucuronic acid as the sugar donor |
| C=C(C)[C@@H]1CC[C@]2(C(=O)O)CC[C@]3(C)[C@H](CC[C@@H]4[C@@]5(C)CC[C@H](O)C(C)(C)[C@@H]5CC[C@]43C)[C@@H]12 [betulinic acid] | GmCSyGT3 showed catalytic activity against the triterpenoid aglycones, ursolic acid and betulinic acid |  |  |  |
| CC1(C)C[C@@H](O)[C@]2(C)CC[C@]3(C)C(=CC[C@@H]4[C@@]5(C)CC[C@H](O)[C@](C)(CO)[C@@H]5CC[C@]43C)[C@@H]2C1 [soyasapogenol B] |  | all three had similar levels of catalytic activity for soyasapogenol B | all three had similar levels of catalytic activity for soyasapogenol B |  |
| CC1(C)[C@@H](O[C@@H]2O[C@H](C(=O)O)[C@@H](O)[C@H](O)[C@H]2O)CC[C@]2(C)[C@H]3C(=O)C=C4[C@@H]5C[C@@](C)(C(=O)O)CC[C@]5(C)CC[C@@]4(C)[C@]3(C)CC[C@@H]12 [GA–GlcA, glycyrrhetinic acid-3-O-monoglucuronide] |  |  |  | de novo pathway in yeast, LC-MS of glycyrrhizin (UGT73P12): Since the product is quickly converted into glycyrrhizin in GL strains |
| C[C@H]1[C@H](C)CC[C@]2(C(=O)O)CC[C@]3(C)C(=CC[C@@H]4[C@@]5(C)CC[C@H](O)C(C)(C)[C@@H]5CC[C@]43C)[C@H]12 [ursolic acid] | GmCSyGT3 showed catalytic activity against the triterpenoid aglycones, ursolic acid and betulinic acid |  |  |  |
| CC1(C)[C@@H](O)CC[C@]2(C)[C@H]3C(=O)C=C4[C@@H]5C[C@@](C)(C(=O)O)CC[C@]5(C)CC[C@@]4(C)[C@]3(C)CC[C@@H]12 [GA, glycyrrhetinic acid] |  | The low catalytic activity of LjCSyGT for glycyrrhetinic and oleanolic acids | All of the CSyGT-expressing strains produced the corresponding monoglucuronides | in vivo yeast assay, LC-MS of 3-O-monoglucoside (GuUGT73F13): GuUGT73F13, which catalyses 3-O-glucosylation of glycyrrhetinic acid; in vivo yeast assay, LC-MS of monoglucuronide (GuCSyGT [2]): All of the CSyGT-expressing strains produced the corresponding monoglucuronides |
